Laboratory results from patent US20250195511A1, “INDAZOLE DERIVATIVES USEFUL AS INHIBITORS OF NOD-LIKE RECEPTOR PROTEIN 3” (Merck Sharp & Dohme LLC, priority 2023, published 2025).

System: NLRP3 inflammasome
Experiment: NLRP3 inflammasome activation: ASC-SPECK formation in gramicidin-stimulated THP-1 cells
Format: cell-based
Settings: Homo sapiens, THP-1, inhibition of ASC SPECK formation; PMA-treated human monocytic THP-1 cells, compound 1 h before 12.5 μg/ml gramicidin, 3-hour treatment
How it was run: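 Undifferentiated human THP-1 cells primed overnight with 10 ng/ml PMA, then given compounds 1 h before 12.5 μg/ml gramicidin for 3 h at 37° C in RPMI with 0.01% BSA. Fixed cells immunostained for ASC with DRAQ5 nuclear counterstain; DRAQ5-positive cells with ASC specks counted by high-content imaging; EC50 from curve fitting.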

Point of comparison: `Cc1cc(C(F)(F)F)cc(O)c1-c1cnc2cn([C@@H]3COC[C@H]3O)nc2n1` [Example 33, (3S,4R)-4-[6-[2-hydroxy-6-methyl-4-(trifluoromethyl)phenyl]pyrazolo[3,4-b]pyrazin-2-yl]tetrahydrofuran-3-ol], EC50 71 nM. Against it:
- Cc1cc(C(F)(F)F)cc(O)c1-c1cnc2cn([C@@H]3C[C@H]3C)nc2n1 [Example 50, 3-methyl-2-[2-[(1R,2R)-2-methylcyclopropyl]pyrazolo[3,4-b]pyrazin-6-yl]-5-(trifluoromethyl)phenol] — within 1.5-fold, 103 nM
- Cc1cc(C(F)(F)F)cc(O)c1-c1cnc2cn(C34CCOC(C)(C3)C4)nc2n1 [Example 15, 3-methyl-2-(2-(1-methyl-2-oxabicyclo[3.1.1]heptan-5-yl)-2H-pyrazolo[3,4-b]pyrazin-6-yl)-5-(trifluoromethyl)phenol] — within 1.5-fold, 84 nM
- Cc1cc(C(F)(F)F)cc(O)c1-c1cnc2cn(C3COC4(C)CC3C4)nc2n1 (racemic) [Example 19, (R and S)-3-methyl-2-(2-(1-methyl-2-oxabicyclo[3.1.1]heptan-4-yl)-2H-pyrazolo[3,4-b]pyrazin-6-yl)-5-(trifluoromethyl)phenol] — 12-fold higher, 876 nM
- Cc1cc(C(F)(F)F)cc(O)c1-c1cnc2cn(C34CCC(O)(CC3)C4)nc2n1 [Example 28, 4-[6-[2-hydroxy-6-methyl-4-(trifluoromethyl)phenyl]pyrazolo[3,4-b]pyrazin-2-yl]norboman-1-ol] — within 1.5-fold, 55 nM
- Cc1cc(C(F)(F)F)cc(O)c1-c1cnc2cn([C@]3(C)CCS(=O)(=O)C3)nc2n1 [Example 29, 3-methyl-2-[2-[(3R)-3-methyl-1,1-dioxo-thiolan-3-yl]pyrazolo[3,4-b]pyrazin-6-yl]-5-(trifluoromethyl)phenol] — 3.3-fold higher, 232 nM
- Cc1cc(C(F)(F)F)cc(O)c1-c1cnc2cn(C34CC(F)(C3)C4)nc2n1 [Example 48, 2-[2-(3-fluoro-1-bicyclo[1.1.1]pentanyl)pyrazolo[3,4-b]pyrazin-6-yl]-3-methyl-5-(trifluoromethyl)phenol] — within 1.5-fold, 65 nM
- COC12CC(n3cc4ncc(-c5c(C)cc(C(F)(F)F)cc5O)nc4n3)(C1)C2 [Example 38, 2-[2-(3-methoxy-1-bicyclo[1.1.1]pentanyl)pyrazolo[3,4-b]pyrazin-6-yl]-3-methyl-5-(trifluoromethyl)phenol] — 2-fold higher, 141 nM
- Cc1cc(C(F)(F)F)cc(O)c1-c1cnc2cn([C@H]3CCC(=O)N(C)C3)nc2n1 [Example 5, (5S)-5-[6-[2-hydroxy-6-methyl-4-(trifluoromethyl)phenyl]pyrazolo[3,4-b]pyrazin-2-yl]-1-methyl-piperidin-2-one] — 5.5-fold lower, 13 nM
- Cc1cc(C(F)(F)F)cc(O)c1-c1cnc2cn([C@H]3C[C@H](F)C3)nc2n1 [Example 16, 2-(2-((1R,3R)-3-fluorocyclobutyl)-2H-pyrazolo[3,4-b]pyrazin-6-yl)-3-methyl-5-(trifluoromethyl)phenol] — 2.8-fold lower, 25 nM
- Cc1cc(C(F)(F)F)cc(O)c1-c1cnc2cn(C3CCOCC3(F)F)nc2n1 (single isomer, unassigned) [Example 105, (R or S)-2-(2-(3,3-difluorotetrahydro-2H-pyran-4-yl)-2H-pyrazolo[3,4-b]pyrazin-6-yl)-3-methyl-5-(trifluoromethyl)phenol] — 6.1-fold higher, 433 nM
- Cc1cc(C(F)(F)F)cc(O)c1-c1cnc2cn(C3CCOCC3)nc2n1 [Example 1, 3-methyl-2-(2-(tetrahydro-2H-pyran-4-yl)-2H-pyrazolo[3,4-b]pyrazin-6-yl)-5-(trifluoromethyl)phenol] — the same, 71 nM
- Cc1cc(C(F)(F)F)cc(O)c1-c1cnc2cn(C34CC(C3)S(=O)(=O)C4)nc2n1 [Example 2, 4-(6-(2-hydroxy-6-methyl-4-(trifluoromethyl)phenyl)-2H-pyrazolo[3,4-b]pyrazin-2-yl)-2-thiabicyclo[2.1.1]hexane 2,2-dioxide] — within 1.5-fold, 50 nM
- Cc1cc(C(F)(F)F)cc(O)c1-c1cnc2cn([C@H]3CC[C@@H](O)CC3)nc2n1 [Example 44, 2-(2-((1S,4S)-4-hydroxycyclohexyl)-2H-pyrazolo[3,4-b]pyrazin-6-yl)-3-methyl-5-(trifluoromethyl)phenol] — 1.7-fold higher, 121 nM

Same assay, conditions: inhibition of ASC SPECK formation; PMA-treated human monocytic THP-1 cells, compound 1 h before 12.5 μg/ml gramicidin, 3-hour treatment

Point of comparison: `Cc1cc(C(F)(F)F)cc(O)c1-c1cnc2cn(CC3CC(=O)N(C(C)C)C3)nc2n1` (single isomer, unassigned) [Example 80, (R or S)-4-((6-(2-hydroxy-6-methyl-4-(trifluoromethyl)phenyl)-2H-pyrazolo[3,4-b]pyrazin-2-yl)methyl)-1-isopropylpyrrolidin-2-one], EC50 8 nM. Against it:
- CCN1CC(n2cc3ncc(-c4c(C)cc(C(F)(F)F)cc4O)nc3n2)CCC1=O (single isomer, unassigned) [Example 64, (R or S)-1-ethyl-5-(6-(2-hydroxy-6-methyl-4-(trifluoromethyl)phenyl)-2H-pyrazolo[3,4-b]pyrazin-2-yl)piperidin-2-one] — within 1.5-fold, 10 nM
- Cc1cc(C(F)(F)F)cc(O)c1-c1cnc2cn(C3CCC(=O)N(C(C)C)C3)nc2n1 (single isomer, unassigned) [Example 60, (R or S)-5-(6-(2-hydroxy-6-methyl-4-(trifluoromethyl)phenyl)-2H-pyrazolo[3,4-b]pyrazin-2-yl)-1-isopropylpiperidin-2-one] — within 1.5-fold, 7 nM
- Cc1cc(C(F)(F)F)cc(O)c1-c1cnc2cn([C@H]3CCOC[C@H]3F)nc2n1 (single isomer, unassigned) [Example 101, 2-(2-((3S,4S or 3R,4R)-3-fluorotetrahydro-2H-pyran-4-yl)-2H-pyrazolo[3,4-b]pyrazin-6-yl)-3-methyl-5-(trifluoromethyl)phenol] — 15-fold higher, 117 nM
- Cc1cc(C(F)(F)F)cc(O)c1-c1cnc2cn(C3CCc4nnn(C)c4C3)nc2n1 (single isomer, unassigned) [Example 68, (R or S)-3-methyl-2-(2-(1-methyl-4,5,6,7-tetrahydro-1H-benzo[d][1,2,3]triazol-6-yl)-2H-pyrazolo[3,4-b]pyrazin-6-yl)-5-(trifluoromethyl)phenol] — 5-fold higher, 40 nM
- Cc1cc(C(F)(F)F)cc(O)c1-c1cnc2cn([C@H]3CCOC[C@@H]3F)nc2n1 (single isomer, unassigned) [Example 104, 2-(2-((3S,4R or 3R,4S)-3-fluorotetrahydro-2H-pyran-4-yl)-2H-pyrazolo[3,4-b]pyrazin-6-yl)-3-methyl-5-(trifluoromethyl)phenol] — 36-fold higher, 291 nM
- Cc1cc(C(F)(F)F)cc(O)c1-c1cnc2cn(C3CCOC(C)(C)C3)nc2n1 (single isomer, unassigned) [Example 95, (R or S)-2-(2-(2,2-dimethyltetrahydro-2H-pyran-4-yl)-2H-pyrazolo[3,4-b]pyrazin-6-yl)-3-methyl-5-(trifluoromethyl)phenol] — 48-fold higher, 388 nM
- CCN1CC(Cn2cc3ncc(-c4c(C)cc(C(F)(F)F)cc4O)nc3n2)CC1=O (single isomer, unassigned) [Example 66, (R or S)-1-ethyl-4-((6-(2-hydroxy-6-methyl-4-(trifluoromethyl)phenyl)-2H-pyrazolo[3,4-b]pyrazin-2-yl)methyl)pyrrolidin-2-one] — 45-fold higher, 359 nM
- Cc1cc(C(F)(F)F)cc(O)c1-c1cnc2c(C(C)O)n(C3CCC(=O)N(C(C)C)C3)nc2n1 (single isomer, unassigned) [Example 119, (R or S)-5-(6-(2-hydroxy-6-methyl-4-(trifluoromethyl)phenyl)-3-((R or S)-1-hydroxyethyl)-2H-pyrazolo[3,4-b]pyrazin-2-yl)-1-isopropylpiperidin-2-one] — 36-fold higher, 291 nM
- Cc1cc(C(F)(F)F)cc(O)c1-c1cnc2c(C(C)O)n(C3CCC(=O)N(C(C)C)C3)nc2n1 (single isomer, unassigned) [Example 117, (S or R)-5-(6-(2-hydroxy-6-methyl-4-(trifluoromethyl)phenyl)-3-((S or R)-1-hydroxyethyl)-2H-pyrazolo[3,4-b]pyrazin-2-yl)-1-isopropylpiperidin-2-one] — 3.6-fold higher, 29 nM
- Cc1cc(C(F)(F)F)cc(O)c1-c1cnc2cn([C@@H]3CCOC[C@@H]3C)nc2n1 (single isomer, unassigned) [Example 85, 3-methyl-2-(2-((3R,4R or 3S,4S)-3-methyltetrahydro-2H-pyran-4-yl)-2H-pyrazolo[3,4-b]pyrazin-6-yl)-5-(trifluoromethyl)phenol] — 5.2-fold higher, 42 nM
- Cc1cc(C(F)(F)F)cc(O)c1-c1cnc2cn(CC3CC(=O)N(C)C3)nc2n1 (single isomer, unassigned) [Example 58, (R or S)-4-((6-(2-hydroxy-6-methyl-4-(trifluoromethyl)phenyl)-2H-pyrazolo[3,4-b]pyrazin-2-yl)methyl)-1-methylpyrrolidin-2-one] — 37-fold higher, 298 nM
- Cc1cc(C(F)(F)F)cc(O)c1-c1cnc2cn([C@H]3CCOC[C@@H]3C)nc2n1 (single isomer, unassigned) [Example 88, 3-methyl-2-(2-((3S,4R or 3R,4S)-3-methyltetrahydro-2H-pyran-4-yl)-2H-pyrazolo[3,4-b]pyrazin-6-yl)-5-(trifluoromethyl)phenol] — 36-fold higher, 291 nM
- Cc1cc(C(F)(F)F)cc(O)c1-c1cnc2cn(C3C4CS(=O)(=O)CC43)nc2n1 (single isomer, unassigned) [Example 54, (1R,5S,6R or 1R,5S,6S)-6-(6-(2-hydroxy-6-methyl-4-(trifluoromethyl)phenyl)-2H-pyrazolo[3,4-b]pyrazin-2-yl)-3-thiabicyclo[3.1.0]hexane 3,3-dioxide] — 12-fold higher, 98 nM
- Cc1cc(C(F)(F)F)cc(O)c1-c1cnc2cn(CC3CC(=O)N(C4CC4)C3)nc2n1 (single isomer, unassigned) [Example 63, (S or R)-1-cyclopropyl-4-((6-(2-hydroxy-6-methyl-4-(trifluoromethyl)phenyl)-2H-pyrazolo[3,4-b]pyrazin-2-yl)methyl)pyrrolidin-2-one] — 1.5-fold higher, 12 nM
